Measured values reported in US7711497B2, “Method of identifying calcium-binding sites in gamma-crystallin useful for management of cataract” (Council of Scientific and Industrial Research, priority 2002, dated 2010).
Blank lines part the entries; values can stand above or below the molecule they belong to. Where no end group is shown, it is not given here.

Key:
[1] = Stains-all binding assay (induced CD); conditions: peptides; dye 43 μM
Procedure: Stains-all Binding Assay-Aliquots of protein solutions were added to the Stains-all solution and mixed gently. Circular dichroism induced in the achiral dye upon binding to the protein was measured in the visible region of the spectrum (400-700 nm). The dye solution and the crystallins were prepared in 2 mM MOPS buffer, pH 7.2, containing 30% ethylene glycol (34, 35). Ellipticities were expressed in millidegrees.
CD spectra of Stains-all induced upon binding to crystallin were recorded in 2 mM MOPS buffer, pH 7.2, containing 30% ethylene glycol, path length 1 cm. Dye concentration in all experiments was 16 μM. The ellipticity data are represented in millidegrees. A, CD spectra recorded with increasing concentration of -crystallin; 1, 0.026 mg/ml (---); 2, 0.078 mg/ml (- - -); 3, 0.13 mg/ml -.-.-. and 4, 0.156 mg/ml (. . .). B, effect of calcium on Stains-all--crystallin complex spectra. Calcium was added in the dye-protein mixture (-crystallin concentration was […]), and CD was recorded. Calcium concentrations used are as follows: 1, no calcium (---); 2, 50 μM calcium (- - - -); 3, 100 μM calcium (. . .); 4, 200 μM calcium (-.-.-.); and 5, 300 μM calcium (-..-..). The J band was abolished with 300-μM calcium.
CD spectra of Stains-all induced upon binding to peptides were recorded. Dye concentration in all experiments was 43 μM. The ellipticity data are represented in millidegrees. a, CD spectra were recorded with increasing concentration of the wild type peptide g3; 0.013 mg/ml (---), 0.037 mg/ml (- - -), and 0.057 mg/ml (. . . .). b, effect of calcium on Stains-all-peptide complex. Calcium was added to the dye-peptide mixture (peptide concentration was 57 μg/ml) and calcium concentrations used were: no calcium (---), 0.7 mM calcium (- - - -), and 7.5 mM calcium (. . . .). c and d represent the Stains-all binding of the modified peptides, g3a and g3b. Identical concentrations of dye and peptides were used.

[2] = 45Ca overlay method (peptide dot-blot); format: binding; conditions: dot-blot on polyvinylidene difluoride membrane
Procedure: Calcium Binding Studies by ^45Ca Overlay Method-Calcium binding to peptides was done by ^45Ca overlay method of Maruyama et al, 133). […] of peptides were spotted onto a polyvinylidene difluoride membrane by dot-blot apparatus. The membrane was equilibrated in a solution containing 10-mM imidazole HCl. pH 6.8, 60 mM KCl, 5 mM MgCl2 and then incubated for 15 min at 25° C. in the same buffer containing 1 microCi/mil ^45Ca. The membrane was then rinsed twice in 45% ethanol, blotted dry, and exposed to PhosphorImager screen, and the signal was read in Phosphorimager (Fuji Bas-1800).
The wild type peptide g3, its variants (g3a and g3b) and s3a were spotted onto a polyvinylidene difluoride membrane and detected by ^45Ca overlay. For a positive control, EF-hand peptide corresponding to site 4 of rat neuronal calcium sensor-1 was used; bovine serum albumin (BSA) was used as a negative control.

[3] = Solubility of Greek key peptides; format: physicochemical; conditions: aqueous medium / water
[4] = Calcium binding of single crystallin domain of AIMI; conditions: compared with gamma-crystallin

Molecule: s3a: control peptide, first Greek key motif of spherulin 3a (residues 14-56), Seq. ID No. 4 (GEVFLYKHVNFQGDSWKVTGNVYDFRSVSGLNDVVSSVKVGPN)
Stains-all binding, induced CD band [1]: binds the dye and induces a calcium-sensitive band at 470-475 nm
solubility [3]: not soluble in water

B1: AIMI: single crystallin domain of AIMI (absent in melanoma), 1022-1117 residues, comprising two Greek keys (protein, UniProt Q9Y4K1 1022-1117, looked up, fragment)
chain: AAKSGPQVIPPASEKTLPIQAQSQGSRTPLMAESSPTNSPSSGNHLATPQRPDQTVTNGQDSPASLLNISAGSDDSVFDSSSDMEKFTEIIKQMDS
modifications: crystallin domain
notes: single crystallin domain of AIMI (absent in melanoma), 1022-1117 residues, comprising two Greek keys
calcium binding affinity [4]: binds calcium with a comparative affinity to gamma-crystallin

More lines, now with the values ahead:

Stains-all binding, induced CD band [1]: binds the dye and induces the band
45Ca binding [2]: do not show detectable binding
Molecule: g3b: g3 mutant with aspartates 108 and 109 replaced by Lys, Seq. ID No. 3 (RMRIYERDDFRGQMSEITKKCPSLQDRFHLTEVHSLNVLEGS)

Stains-all binding, induced CD band [1]: decreased several fold
45Ca binding [2]: do not show detectable binding
Molecule: g3a: g3 mutant with Glu-95 and Glu-121 modified to Lys, Seq. ID No. 2 (RMRIYKRDDFRGQMSEITDDCPSLQDRFHLTKVHSLNVLEGS)

solubility [3]: fairly soluble in aqueous medium
Molecule: RMRIYERDDFRGQMSEITDDCPSLQDRFHLTEVHSLNVLEGS [g3]
